We go through 6 molecules from PMC9316855 (Molecules, 2022).

One data set in a line: in vitro. Conditions: rat, serum, pH 7.4.
For data set [1] the following is noted: 48 h.
The conditions of data set [2]: 24 h.

The term share remaining denotes the share of the starting amount still present when the sample was taken. A lower share remaining goes with more turnover. In “in vitro”, `CC(C)C[C@H](NC(=O)[C@H](CC(=O)O)NC(=O)CNC(=O)[C@H](CCCNC(=N)N)NC(=O)[C@H](CC(C)C)NC(=O)[C@H](CC(N)=O)NC(=O)[C@@H]1CCCN1C(=O)[C@@H](NC(=O)[C@H](C)NC(=O)[C@H](CC(N)=O)NC(=O)COCCOCCOCCOCCOCCN)C(C)C)C(=O)N[C@@H](CCC(N)=O)C(=O)N[C@H](C(=O)N[C@@H](CC(C)C)C(=O)N[C@@H](C)C(=O)N[C@@H](CCC(N)=O)C(=O)N[C@@H](CCCCN)C(=O)N[C@H](C(=O)N[C@@H](C)C(=O)N[C@@H](CCCNC(=N)N)C(=O)N[C@H](C(=O)O)[C@@H](C)O)C(C)C)C(C)C` [Compound 18] registered a share remaining at 24 h of about 60% and an amount remaining at 48 h of about 40%.
`CC(C)C[C@H](NC(=O)[C@H](CC(=O)O)NC(=O)CNC(=O)[C@H](CCCNC(=N)N)NC(=O)[C@H](CC(C)C)NC(=O)[C@H](CC(N)=O)NC(=O)[C@@H]1CCCN1C(=O)[C@@H](NC(=O)[C@H](C)NC(=O)[C@H](CC(N)=O)NC(=O)COCCOCCOCCOCCOCCOCCOCCOCCN)C(C)C)C(=O)N[C@@H](CCC(N)=O)C(=O)N[C@H](C(=O)N[C@@H](CC(C)C)C(=O)N[C@@H](C)C(=O)N[C@@H](CCC(N)=O)C(=O)N[C@@H](CCCCN)C(=O)N[C@H](C(=O)N[C@@H](C)C(=O)N[C@@H](CCCNC(=N)N)C(=O)N[C@H](C(=O)O)[C@@H](C)O)C(C)C)C(C)C` [Compound 19] yielded an amount remaining at 24 h in the data set “in vitro” of over 70%. In data set [1], the “peptide remaining intact in rat serum” value is recorded as over 58%.
Turning to `CC(C)C[C@H](NC(=O)[C@H](CC(=O)O)NC(=O)CNC(=O)[C@H](CCCNC(=N)N)NC(=O)[C@H](CC(C)C)NC(=O)[C@H](CC(N)=O)NC(=O)[C@@H]1CCCN1C(=O)[C@@H](NC(=O)[C@H](C)NC(=O)[C@H](CC(N)=O)NC(=O)CCOCCOCCOCCOCCOCCN)C(C)C)C(=O)N[C@@H](CCC(N)=O)C(=O)N[C@H](C(=O)N[C@@H](CC(C)C)C(=O)N[C@@H](C)C(=O)N[C@@H](CCC(N)=O)C(=O)N[C@@H](CCCCN)C(=O)N[C@H](C(=O)N[C@@H](C)C(=O)N[C@@H](CCCNC(=N)N)C(=O)N[C@H](C(=O)O)[C@@H](C)O)C(C)C)C(C)C` [Compound 20], in “in vitro”, the share remaining at 24 h was about 60% and the share remaining at 48 h is about 40%.
On to `CC(C)C[C@H](NC(=O)[C@H](CC(=O)O)NC(=O)CNC(=O)[C@H](CCCNC(=N)N)NC(=O)[C@H](CC(C)C)NC(=O)[C@H](CC(N)=O)NC(=O)[C@@H]1CCCN1C(=O)[C@@H](NC(=O)[C@H](CCCCNC(=O)CCCC[C@@H]1SC[C@@H]2NC(=O)N[C@@H]21)NC(=O)[C@H](CC(N)=O)NC(=O)CCOCCOCCOCCOCCOCCOCCOCCOCCOCCOCCOCCOCCOCCOCCOCCOCCOCCOCCOCCOCCNC(=O)CN(CCN(CCN(CC(=O)O)CC(=O)O)CC(=O)O)CC(=O)O)C(C)C)C(=O)N[C@@H](CCC(N)=O)C(=O)N[C@H](C(=O)N[C@@H](CC(C)C)C(=O)N[C@@H](C)C(=O)N[C@@H](CCC(N)=O)C(=O)N[C@@H](CCCCN)C(=O)N[C@H](C(=O)N[C@@H](C)C(=O)N[C@@H](CCCNC(=N)N)C(=O)N[C@H](C(=O)O)[C@@H](C)O)C(C)C)C(C)C` [Compound 30], for which, in data set [2], the “peptide remaining intact in human plasma” value is “around 80%”.
Turning to `CC(C)C[C@H](NC(=O)[C@H](CC(=O)O)NC(=O)CNC(=O)[C@H](CCCNC(=N)N)NC(=O)[C@H](CC(C)C)NC(=O)[C@H](CC(N)=O)NC(=O)[C@@H]1CCCN1C(=O)[C@@H](NC(=O)[C@H](C)NC(=O)[C@H](CC(N)=O)NC(=O)CCOCCOCCOCCOCCOCCOCCOCCOCCOCCOCCOCCOCCOCCOCCOCCOCCOCCOCCOCCOCCN)C(C)C)C(=O)N[C@@H](CCC(N)=O)C(=O)N[C@H](C(=O)N[C@@H](CC(C)C)C(=O)N[C@@H](C)C(=O)N[C@@H](CCC(N)=O)C(=O)N[C@@H](CCCCN)C(=O)N[C@H](C(=O)N[C@@H](C)C(=O)N[C@@H](CCCNC(=N)N)C(=O)N[C@H](C(=O)O)[C@@H](C)O)C(C)C)C(C)C` [Compound 23], in the data set “in vitro”, the fraction remaining at 24 h was about 90% and the fraction remaining at 48 h is over 70%.
As to `CC(C)C[C@H](NC(=O)[C@H](CC(=O)O)NC(=O)CNC(=O)[C@H](CCCNC(=N)N)NC(=O)[C@H](CC(C)C)NC(=O)[C@H](CC(N)=O)NC(=O)[C@@H]1CCCN1C(=O)[C@@H](NC(=O)[C@H](CCCCNC(=O)CCCC[C@@H]1SC[C@@H]2NC(=O)N[C@@H]21)NC(=O)[C@H](CC(N)=O)NC(=O)COCCOCCNC(=O)CN(CCN(CCN(CC(=O)O)CC(=O)O)CC(=O)O)CC(=O)O)C(C)C)C(=O)N[C@@H](CCC(N)=O)C(=O)N[C@H](C(=O)N[C@@H](CC(C)C)C(=O)N[C@@H](C)C(=O)N[C@@H](CCC(N)=O)C(=O)N[C@@H](CCCCN)C(=O)N[C@H](C(=O)N[C@@H](C)C(=O)N[C@@H](CCCNC(=N)N)C(=O)N[C@H](C(=O)O)[C@@H](C)O)C(C)C)C(C)C` [Compound 25], the “peptide remaining intact in human plasma” value in data set [2] was “around 80%”.
